Results on two molecules are retold here after ChEMBL document CHEMBL1124131, “Derivatives of 2-methylenepropane-1,3-diol as new antagonists of platelet activating factor” (J Med Chem, 1988).

In experiment [1] the test system is Cavia porcellus. Kind of experiment: Tested in vivo for dose required to inhibit PAF-induced bronchoconstriction in guinea pig. The class given is functional.
Experiment [2] is filed under the species Oryctolagus cuniculus. The experiment in a line: Concentration required to reduce 50% of maximum platelet aggregation caused by PAF in platelet rich plasma from rabbit in vitro. The class given is functional.
Experiment [3] deals with Rattus norvegicus. The experiment in a line: Tested in vivo for dose required to inhibit PAF-induced hypotension in rat.
In experiment [4] the test system is Rattus norvegicus. The description is as above. The source holds these as a separate data set.

Turning to `C=C(COC(=O)CCCCCC[n+]1ccsc1)COC(=O)NCCCCCCCCCCCCCCCCCC.[Br-]`, the ED50 in experiment [1] turned out to be 0.1 mg/kg; in experiment [3], 0.5 mg/kg. A half-maximal effect in experiment [2] (EC50) was put at 250 nM.
Regarding `C=C(COC(=O)CCCCC[n+]1ccccc1)COC(=O)NCCCCCCCCCCCCCCCCCC.[Br-]`, the ED50 in experiment [1] is 0.2 mg/kg; in experiment [4], 0.5 mg/kg. In addition, it took 500 nM to reach a half-maximal effect in experiment [2] (EC50).

As usually defined, the ED50 is the dose at which the effect has come halfway, by size or by number of responders. A word on the EC50: it is the midpoint of the concentration-response curve. A low value points to higher potency in that assay.
